Measured values from patent publication US11304964B2, “Bolaamphiphilic compounds, compositions and uses thereof” (priority 2012, dated 2022).

Legend:
[1] = Tenofovir encapsulation in bolaamphiphile vesicles (UV absorbance after Sephadex G50 separation); assay type: physicochemical
Procedure: Bolaamphiphiles, cholesterol, and CHMES (2:1:1 mole ratio) are dissolved in chloroform or a suitable solvent. […] The solvents are evaporated under vacuum and the resultant thin films are hydrated in 0.2 mg/mL CF solution in PBS and probe-sonicated (Vibra-Cell VCX130 sonicator, Sonics and Materials Inc., Newtown, Conn., USA) with amplitude 20%, pulse on: 15 sec, pulse off: 10 sec to achieve homogenous vesicle dispersions. Vesicle size and zeta potential were determined using a Zetasizer Nano ZS (Malvern Instruments, UK).
Methods were established to determine quantitatively the amount of the encapsulated tenofovir based on a UV absorption and determined the percent of tenofovir encapsulation by various vesicle formulations (data not shown). […] One objective of this work was to achieve the maximum amount of tenofovir encapsulated per vesicle along with a minimum loss of the non-encapsulated drug. Accordingly, several parameters were examined, such as varying the ratio among the vesicle components, changing the ratio of tenofovir to bolaamphiphiles, varying the pH of the hydration solution and also adding to the formulation additional additives, in the attempt to increase the encapsulation capacity of the vesicles.
In particular, in order to maximize tenofovir encapsulation the following parameters were studied: (1) tenofovir to GLH ratio; (2) adjusting the concentrations of cholestyrl hemisuccinate (CHEM) and cholesterol (CHOL), components that are used in the vesicle formulation, (3) examining several buffers and pHs in the encapsulation process, (4) time of sonication, and (5) tenofovir concentration, and (6) addition of stearyl amine to the vesicle formulation to enhance encapsulation by complexation with tenofovir.
The vesicles were prepared from formulations with and without SA and the non-encapsulated tenofovir (free tenofovir) was separated from the encapsulated tenofovir on Sephadex G50 column and the absorbance at 260 nm of each fraction collected from the column was read.

[2] = Pharmacokinetic studies, first set (LC-MS, blood and brain); settings: for half-life: mouse, iv, 34 mg/kg
Procedure: The chromatographic separation was performed with an HPLC Agilent 1100 instrument and Auto-sampler G 1329A ALS 1200 Series with Frizzier G1330B FC/ALS Therm, at a temperature of 4° C., using a reverse phase Kromasile 100A C18 250×2.0 (5 μm) column at 30° C. under gradient conditions. The mobile phase consisted of two solvents: (A) acetonitrile and (B) 0.5% formic acid in water and was operated under the following conditions:
The MS/MS detector was an Ion Trap MS Esquire 3000 Plus (Bruker Daltonics), operating in the ESI positive polarity mode. The internal standard was 2′-deoxyadenosine 5′-phosphate.
After establishing conditions for the LC-MS as described above, brain homogenate and blood samples were prepared and spiked known concentrations of tenofovir and a fixed concentration of the internal standard into the blood samples and the brain homogenates. The specimens were then processed by adding 180 μL of 10% Tri Chloro Acetic acid (TCA) to 300 μL of the homogenate followed by centrifugation to obtain a clear solution of blood or brain extracts. The supernatant that was obtained by the centrifugation was neutralized with 200 μL of 1% NaOH. The MS signals that were obtained from each sample were plotted as a function of the spiked tenofovir concentration to obtain calibration curves for the blood (FIG. 17A) and for the brain (FIG. 17B).
For the PK studies, vesicles optimized as described above were used for the delivery of tenofovir into the brain. […] The vesicles were prepared by film hydration followed by sonication using a HEPES hydration buffer.
In the first set of the PK experiments, mice (average weight was 22 g per mouse) were injected with vesicles that contained encapsulated tenofovir or with empty vesicles followed by free tenofovir (4 mice per group). […] The dose of the total tenofovir was 34 mg/kg, out of which 6.8 mg/kg was encapsulated (only when encapsulated tenofovir was injected). […] Before the injection of the test material, mice were pretreated with 0.5 mg/kg pyridostigmine to inhibit choline esterases in the blood (unless otherwise stated), since vesicles that contain GLH-20 release their content in presence of choline esterases. At various times after the injection (15, 30, 75, 120 and 240 min), blood samples were withdrawn and the mice were perfused with 10 mL PBS and sacrificed. Brains were immediately removed after sacrificing the mice and brain homogenates were prepared by homogenizing the brains in PBS (4 mL PBS per gram brain). Extracts of the homogenates were then prepared by adding 180 μL of 10% TCA to 300 μL of the homogenate followed by centrifugation to obtain a clear solution of the brain extract. The supernatant that was obtained by the centrifugation was neutralized with 200 μL of 1% NaOH. Tenofovir concentration in the clear brain extract was determined by LC-MS, using the calibration curve which is described above in FIG. 17. The blood samples were centrifuged to separate the serum from the blood cells and processed in the same way as the brain homogenates.

[3] = human subjects treated orally with 300 mg tenofovir; cited from earlier work
[4] = Tenofovir concentration in brain after i.v. tenofovir-loaded vesicles (HPLC-UV of brain homogenate); assay type: in vivo, mice
Source text: Protein precipitation was accomplished by adding trichloroacetic acid (TCA) at a final concentration of 3.75%, providing a clear supernatant by centrifugation. This supernatant was neutralized by 1% sodium hydroxide solution and the neutralized extract was examined by HPLC with a UV detector, using an isocratic method with 10% aceto-nitrile and 90% buffer of triethyl amine in water adjusted to pH 5.4 with concentrated phosphoric acid. When applied to a solution of tenofovir in buffer without the brain extract, the retention time was 17.3 min (FIG. 8 Panel A). […] The broad peak at 22.5 min overlapped the peak of the tenofovir at 17 min (compare FIG. 8 Panel B to FIG. 8 Panel A) and would interfere with the determination of tenofovir concentration in the extract. To narrow the peak of the endogenous compound with the Rt of 22.5 min, a solid phase extraction (SPE) method was employed, using BOND ELUT-C18 column. After the treatment with SPE some peaks disappeared and the others became narrower.
Different concentrations of tenofovir were then spiked into a supernatant obtained after deproteinization of brain homogenate with TCA and centrifugation. The supernatant with the tenofovir was loaded into the SPE cartridge, which was conditioned by 3 ml methanol and 3 ml of 150 mM ammonium acetate (pH=5.0). After washing with 900 μl of 100 mM ammonium acetate (pH=7.0), in order to obtain less interference at the retention time of each component, the column was eluted by 500 μl of methanol to collect the tenofovir. The solvent was removed under nitrogen at 60° C. The extracted sample was dissolved into 120 μl of water and methanol solution (90:10, v/v) and injected into the HPLC.
In view of the conditions for the determination of tenofovir in brain homogenates established herein, mice were injected with 7.5 mg/kg of tenofovir encapsulated in vesicles prepared as for Table 5 above that contained the optimal GLH-55b and SA and brain homogenates were prepared from the brains of these mice for the determination of tenofovir concentrations. […] This concentration value is significant and should have a therapeutic affect against HIV.
A subsequent in vivo experiment was carried out as above but with testing over different periods of time from of 15 min, 30 min, 60 min and 120 min after IV injection the amount of tenofovir was in micro gr/grm brain 6.2, 2.2, 1.0 and 0.5 respectively. While the free tenofovir injected had levels of 0 less than 0.2 micrograms/gr brain. Thus indicating the efficacy of the vesicles to delivery tenofovir to the brain.

[5] = CNS penetration effectiveness index; cited from earlier work
[6] = HEPES pH 7.5, GLH 19/20 (2:1) 10 mg/ml, SA 1.25 mg/ml, tenofovir 5 mg/ml, standard CHOL/CHEMS
[7] = HEPES pH 7.5, GLH 19/20 (2:1) 10 mg/ml, SA 2.5 mg/ml, tenofovir 5 mg/ml, standard CHOL/CHEMS
[8] = HEPES pH 7.5, GLH 19/20 (2:1) 10 mg/ml, SA 3.5 mg/ml, tenofovir 5 mg/ml, standard CHOL/CHEMS
[9] = HEPES pH 7.5, GLH 19/20 (2:1) 10 mg/ml, tenofovir 1 mg/ml, standard CHOL/CHEMS
[10] = HEPES pH 7.5, GLH 19/20 (2:1) 10 mg/ml, tenofovir 2 mg/ml, ½ the standard amount of cholesterol and cholesteryl hemisuccinate
[11] = HEPES pH 7.5, GLH 19/20 (2:1) 15 mg/ml, SA 2.5 mg/ml, tenofovir 5 mg/ml, standard CHOL/CHEMS
[12] = HEPES pH 7.5, GLH 19/20 (2:1) 15 mg/ml, tenofovir 1 mg/ml, standard CHOL/CHEMS
[13] = HEPES pH 7.5, GLH 19/20 (2:1) 15 mg/ml, tenofovir 2 mg/ml, ½ the standard amount of cholesterol and cholesteryl hemisuccinate
[14] = HEPES pH 8, GLH 19/20 (2:1) 15 mg/ml, SA 2.5 mg/ml, tenofovir 5 mg/ml, standard CHOL/CHEMS
[15] = HEPES pH 8, GLH 19/20 (2:1) 15 mg/ml, tenofovir 1 mg/ml, standard CHOL/CHEMS
[16] = TRIS pH 8, GLH 19/20 (2:1) 10 mg/ml, SA 2.5 mg/ml, tenofovir 5 mg/ml, standard CHOL/CHEMS
[17] = TRIS pH 8, GLH 19/20 (2:1) 10 mg/ml, tenofovir 1 mg/ml, standard CHOL/CHEMS
[18] = TRIS pH 8, GLH 19/20 (2:1) 10 mg/ml, tenofovir 2 mg/ml, standard CHOL/CHEMS
[19] = TRIS pH 8, GLH 19/20 (2:1) 10 mg/ml, tenofovir 5 mg/ml, standard CHOL/CHEMS
[20] = TRIS pH 8, GLH 19/20 (2:1) 20 mg/ml, tenofovir 5 mg/ml, standard CHOL/CHEMS

## C[C@H](Cn1cnc2c(N)ncnc21)OCP(=O)(O)O [tenofovir, ({[(2R)-1-(6-amino-9H-purin-9-yl)propan-2-yl]oxy}methyl)phosphonic acid]
[1]; [6]
  % tenofovir encapsulation: 15.9%
  Ratio of tenofovir encapsulated to bolaamphiphiles: 0.062 mg/mg
[1]; [7]
  % tenofovir encapsulation: 21.4%
  Ratio of tenofovir encapsulated to bolaamphiphiles: 0.107 mg/mg
[1]; HEPES pH 7.5, GLH 19/20 (2:1) 10 mg/ml, SA 2.5 mg/ml, tenofovir 5 mg/ml, ½ the standard amount of cholesterol and cholesteryl hemisuccinate
  % tenofovir encapsulation: **22%
[1]; [8]
  % tenofovir encapsulation: 30.9%
  Ratio of tenofovir encapsulated to bolaamphiphiles: 0.155 mg/mg
[1]; [9]
  % tenofovir encapsulation: 17.4%
  mg tenofovir encapsulated/mg bola: 0.026 mg tenofovir encapsulated/mg bola
[1]; HEPES pH 7.5, GLH 19/20 (2:1) 10 mg/ml, tenofovir 2 mg/ml, standard CHOL/CHEMS
  mg tenofovir encapsulated/mg bola: 0.024 mg tenofovir encapsulated/mg bola
[1]; [10]
  % tenofovir encapsulation: **16.5%
  mg tenofovir encapsulated/mg bola: **0.033 mg tenofovir encapsulated/mg bola
[1]; HEPES pH 7.5, GLH 19/20 (2:1) 10 mg/ml, tenofovir 5 mg/ml, standard CHOL/CHEMS
  % tenofovir encapsulation: 7.8%
[1]; HEPES pH 7.5, GLH 19/20 (2:1) 10 mg/ml, tenofovir 7.5 mg/ml, standard CHOL/CHEMS
  % tenofovir encapsulation: 3.8%
[1]; [11]
  % tenofovir encapsulation: 18.6%
  Ratio of tenofovir encapsulated to bolaamphiphiles: 0.08 mg/mg
[1]; [12]
  % tenofovir encapsulation: 38.6%
  mg tenofovir encapsulated/mg bola: 0.026 mg tenofovir encapsulated/mg bola
[1]; HEPES pH 7.5, GLH 19/20 (2:1) 15 mg/ml, tenofovir 2 mg/ml, standard CHOL/CHEMS
  % tenofovir encapsulation: 18.4, %
[1]; [13]
  % tenofovir encapsulation: **22.5%
  mg tenofovir encapsulated/mg bola: **0.033 mg tenofovir encapsulated/mg bola
[1]; [14]
  % tenofovir encapsulation: 23%
  Ratio of tenofovir encapsulated to bolaamphiphiles: 0.077 mg/mg
[1]; [15]
  % tenofovir encapsulation: 31.2%
  mg tenofovir encapsulated/mg bola: 0.021 mg tenofovir encapsulated/mg bola
[1]; TRIS pH 8, GLH 19/20 (2:1) 5 mg/ml, tenofovir 1 mg/ml in hydration solution, standard CHOL/CHEMS
  % tenofovir encapsulation: 4%
[1]; TRIS pH 8, GLH 19/20 (2:1) 5 mg/ml, tenofovir 1 mg/ml, standard CHOL/CHEMS
  mg tenofovir encapsulated/mg bola: 0.008 mg tenofovir encapsulated/mg bola
[1]; [16]
  % tenofovir encapsulation: 12.7%
  Ratio of tenofovir encapsulated to bolaamphiphiles: 0.064 mg/mg
[1]; [17]
  % tenofovir encapsulation: 11%
  mg tenofovir encapsulated/mg bola: 0.011 mg tenofovir encapsulated/mg bola
[1]; [18]
  % tenofovir encapsulation: 9%
  mg tenofovir encapsulated/mg bola: 0.018 mg tenofovir encapsulated/mg bola
[1]; [19]
  % tenofovir encapsulation: 6%
  mg tenofovir encapsulated/mg bola: 0.03 mg tenofovir encapsulated/mg bola
[1]; TRIS pH 8, GLH 19/20 (2:1) 15 mg/ml, tenofovir 1 mg/ml, standard CHOL/CHEMS
  mg tenofovir encapsulated/mg bola: 0.016 mg tenofovir encapsulated/mg bola
[1]; TRIS pH 8, GLH 19/20 (2:1) 15 mg/ml, tenofovir 1 mg/ml, standard CHOL/CHEMS, ±SEM
  % tenofovir encapsulation: 24.5 ± 2.1%
[1]; TRIS pH 8, GLH 19/20 (2:1) 15 mg/ml, tenofovir 2 mg/ml, standard CHOL/CHEMS
  mg tenofovir encapsulated/mg bola: 0.03 mg tenofovir encapsulated/mg bola
[1]; TRIS pH 8, GLH 19/20 (2:1) 15 mg/ml, tenofovir 2 mg/ml, standard CHOL/CHEMS, ±SEM
  % tenofovir encapsulation: 21 ± 2.1%
[1]; TRIS pH 8, GLH 19/20 (2:1) 15 mg/ml, tenofovir 5 mg/ml, standard CHOL/CHEMS
  mg tenofovir encapsulated/mg bola: 0.03 mg tenofovir encapsulated/mg bola
[1]; TRIS pH 8, GLH 19/20 (2:1) 15 mg/ml, tenofovir 5 mg/ml, standard CHOL/CHEMS, ±SEM
  % tenofovir encapsulation: 9 ± 1.4%
[1]; TRIS pH 8, GLH 19/20 (2:1) 20 mg/ml, tenofovir 1 mg/ml, standard CHOL/CHEMS
  mg tenofovir encapsulated/mg bola: 0.02 mg tenofovir encapsulated/mg bola
[1]; TRIS pH 8, GLH 19/20 (2:1) 20 mg/ml, tenofovir 1 mg/ml, standard CHOL/CHEMS, ±SEM
  % tenofovir encapsulation: 31.4 ± 4.5%
[1]; TRIS pH 8, GLH 19/20 (2:1) 20 mg/ml, tenofovir 2 mg/ml, standard CHOL/CHEMS
  mg tenofovir encapsulated/mg bola: 0.022 mg tenofovir encapsulated/mg bola
[1]; TRIS pH 8, GLH 19/20 (2:1) 20 mg/ml, tenofovir 2 mg/ml, standard CHOL/CHEMS, ±SEM
  % tenofovir encapsulation: 22.5 ± 3.5%
[1]; [20]
  % tenofovir encapsulation: 9.3%
  mg tenofovir encapsulated/mg bola: 0.023 mg tenofovir encapsulated/mg bola
[1]; optimal formulation for PK: 10 mg GLH 19/20 2/1, 1 mg GLH-55b, 2.5 mg stearyl amine, 5 mg tenofovir per mL, HEPES
  % of the added tenofovir encapsulated: 20%
[1]; optimal formulation used in first set of PK experiments
  amount of the encapsulated tenofovir: 1 mg/mL vesicles
[1]; various vesicle formulations, conditions that yielded maximum encapsulation (before optimization)
  percent of tenofovir encapsulation: 18-20%
[2]; mice injected with empty vesicles and then free tenofovir
  tenofovir concentration in the brain: not detected
[2]; brain, apparent half-life of tenofovir in the brain, mice pretreated with pyrido, tenofovir encapsulated in GLH-19 + GLH-20 vesicles, i.v.
  half-life: ~40 min
[2]; serum, actual half-life of the encapsulated tenofovir in the blood, inferred, encapsulated tenofovir only 20% of injected
  half-life: > 20 min
[2]; serum, half-life of tenofovir in the blood (apparent), mice i.v., total tenofovir 34 mg/kg of which 6.8 mg/kg encapsulated, reflects free and encapsulated tenofovir
  half-life: ~20 min
[2]; tenofovir encapsulated in GLH-19 vesicles, i.v. mice
  persistence of tenofovir in the brain: did not persist long in the brain
[3]
  blood concentration of tenofovir: about 500 ng/ml
[4]; mice i.v., 7.5 mg/kg tenofovir encapsulated in vesicles with GLH-55b and SA, estimated from calibration curve
  concentration of tenofovir in the brain: 22.7 μg/gr brain
[4]; mice, free tenofovir injected IV
  level of tenofovir in brain: less than 0.2 micrograms/gr brain
[4]; mouse, brain, 7.5 mg/kg, mice, encapsulated tenofovir in vesicles, 15 min after IV injection, read-out: amount of tenofovir in brain
  concentration at 15 min: 6200 ng/g
[4]; mouse, brain, 7.5 mg/kg, mice, encapsulated tenofovir in vesicles, 30 min after IV injection, read-out: amount of tenofovir in brain
  concentration at 30 min: 2200 ng/g
[4]; mouse, brain, 7.5 mg/kg, mice, encapsulated tenofovir in vesicles, 60 min after IV injection, read-out: amount of tenofovir in brain
  concentration at 60 min: 1000 ng/g
[4]; mouse, brain, 7.5 mg/kg, mice, encapsulated tenofovir in vesicles, 120 min after IV injection, read-out: amount of tenofovir in brain
  concentration at 120 min: 500 ng/g
[5]
  CPE rating: 1
